Source: article PMC10439028, “SGLT5 is the renal transporter for 1,5-anhydroglucitol, a major player in two rare forms of neutropenia” (Cellular and Molecular Life Sciences: CMLS, 2023)
Numbering of substitutions follows the chain as printed.

How the values were obtained:
hSGLT5 Ala522Val = biological target: T1, hSGLT5 Ala522Val (Homo sapiens, UniProt A0PJK1, A522V); experiment: 1,5-AG uptake in HEK293T cells overexpressing SGLT5 variant Ala522Val; type: cell-based
T1 construct: pUB83-hSGLT5-iso2 as well as the various SGLT5 mutants obtained were used to transduce HEK293T cells; expressed in transfected cells; host or cells: HEK293T, lentiviral transduction (pUB83)
T1 sequence (A0PJK1 1-596 A522V): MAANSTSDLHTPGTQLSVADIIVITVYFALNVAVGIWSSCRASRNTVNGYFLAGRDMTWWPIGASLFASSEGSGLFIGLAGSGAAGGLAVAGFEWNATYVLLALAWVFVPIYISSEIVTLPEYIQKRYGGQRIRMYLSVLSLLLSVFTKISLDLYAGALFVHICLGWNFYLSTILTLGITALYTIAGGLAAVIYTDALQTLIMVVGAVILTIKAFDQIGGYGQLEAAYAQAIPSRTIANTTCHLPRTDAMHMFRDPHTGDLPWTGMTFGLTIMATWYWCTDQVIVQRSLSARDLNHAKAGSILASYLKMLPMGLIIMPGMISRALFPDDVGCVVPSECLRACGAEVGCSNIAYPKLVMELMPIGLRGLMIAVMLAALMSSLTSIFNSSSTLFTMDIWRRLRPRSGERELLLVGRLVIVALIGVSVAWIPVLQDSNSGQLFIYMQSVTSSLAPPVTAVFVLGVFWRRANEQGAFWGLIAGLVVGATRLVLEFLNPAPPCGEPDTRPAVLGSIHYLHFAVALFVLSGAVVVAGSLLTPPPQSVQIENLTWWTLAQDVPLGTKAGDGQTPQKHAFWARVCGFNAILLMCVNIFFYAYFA
Procedure: For a typical transporter experiment we proceeded as follows. […] To minimize cell loss during the various washing steps in the radioactive uptake experiments, the wells where the cells were seeded were previously coated with poly- D-lysine, which improved their adhesion to the plastic surface of the wells. For this, each well of the 24-well plates was treated with 200 µl of a 0.01% poly-L-lysine solution for 10 min, washed 3 times with 1 ml of sterilized water and left to dry for 2 h. Only then could the 24-well plates be seeded with the appropriate cell lines and cultured overnight at 37 °C in 5% CO2.
On day two, the radioactive uptake assay could be performed. The cell culture media was removed by aspiration and cells were incubated for 20 min at 37 °C and 5% CO2 with a basal medium (10 mM HEPES, pH 7.4, 1 mM CaCl2, 1 mM MgCl2, 2 mM KCl) containing 140 mM choline chloride to deplete intracellular Na^2+ ions. […]
Once the uptake medium was added to the cells, the plates were incubated at 37 °C in 5% CO2 during the required time. […] In each experiment, the transport activities were calculated after subtracting a “blank” value, corresponding to the radioactivity in the appropriate control cells (HEK293T cells that were stably or transiently transfected with one of the parent plasmids pEF6/MycHisA, pEF6HisB, pUB82 or pUB83 with no inserted cDNA) that were analyzed in parallel. […]

hSGLT5 Asn96Ile = biological target: T2, hSGLT5 Asn96Ile (Homo sapiens, UniProt A0PJK1, N96I); experiment: Inhibition of 10 µM 1,5-AG transport by SGLT5 variant Asn96Ile; type: cell-based; conditions: mutation Asn96Ile versus SGLT5, Fig. 5D
T2 construct: pUB83-hSGLT5-iso2 as well as the various SGLT5 mutants obtained were used to transduce HEK293T cells; expressed in transfected cells; host or cells: HEK293T, lentiviral transduction (pUB83)
T2 sequence (A0PJK1 1-596 N96I): T1 sequence (A0PJK1 1-596 A522V) with N96I, V522A
Procedure: The transport experiments to study the specificity of SGLT4 or SGLT5, were performed in the presence of 10 µM U-[^14C + ^12C]-mannose (for SGLT4) or 2-[^3H + ^1H]-1,5-AG (for SGLT5) and increasing concentrations of various sugars tested. The transport experiments to study the inhibition of empagliflozin, dapagliflozin or remogliflozin, on the transport of 1,5-AG by SGLT5 or its variants were performed in the presence of 10 µM 2-[^3H + ^1H]-1,5-AG and increasing concentrations of the various gliflozins tested.
SGLT5 mutants were created using the quick-change site directed mutagenesis method that enables effective mutagenesis without subcloning of the amplified PCR products. Complementary primer pairs carrying the desired replacements (Supplementary Table 3) were designed using an online tool (https://www.agilent.com/store/primerDesignProgram.jsp). The PCR protocol was carried out following the manufacturer instructions regarding the KOD HOT Start polymerase kit (TOYOBO™, Novagen). The amplified DNA was cleaned-up from the reactions constituents using the GeneJET PCR purification Kit (Thermo Scientific™) and the size of the DNA fragment were verified by DNA agarose-gel electrophoresis. […]

Row | Compound | Vmax (hSGLT5 Ala522Val; variant Ala522Val) [pmol/min/10^5cells] | effect of mutation on ability of SGLT5 to transport 1,5-AG (hSGLT5 Ala522Val; variant Ala522Val (control)) | effect of mutation on inhibition exerted by empagliflozin (hSGLT5 Asn96Ile)
1 | OC[C@H]1OC[C@H](O)[C@@H](O)[C@@H]1O [1,5-AG, 1,5-anhydroglucitol] | 18.3 ± 0.5 | no effect | 
2 | OC[C@H]1O[C@@H](c2ccc(Cl)c(Cc3ccc(O[C@H]4CCOC4)cc3)c2)[C@H](O)[C@@H](O)[C@@H]1O [empagliflozin] |  |  | considerably decreased (by more than tenfold)
